The values below come from BindingDB's records for doi:10.1074/jbc.M406801200 (The Scripps Research Institute, 2004).

This experiment concerns the target Bifunctional purine biosynthesis protein ATIC (Homo sapiens, UniProt P31939). The experiment can be described thus: AICAR Tfase Inhibition Assay. As to conditions: pH 7.5; 22 °C. The protocol:
The human ATIC enzyme was used for the inhibition assay. The assay buffer was flushed with nitrogen to minimize oxidization of cofactor 10-f-THF. The reaction was initiated by adding the substrate AICAR to reaction mixtures containing ATIC, test compounds, and different concentrations of cofactor. […] The THF was generated in the transfer reaction of the formyl group from cofactor to AICAR to produce 5-formyl-AICAR. IC50 values were measured from dose-response curves.

SMILES strings stand for the structures.

By IC50 is commonly meant the concentration at which inhibition is half-maximal. A low value points to higher potency.

Bifunctional purine biosynthesis protein ATIC, sequence (P31939 whole entry): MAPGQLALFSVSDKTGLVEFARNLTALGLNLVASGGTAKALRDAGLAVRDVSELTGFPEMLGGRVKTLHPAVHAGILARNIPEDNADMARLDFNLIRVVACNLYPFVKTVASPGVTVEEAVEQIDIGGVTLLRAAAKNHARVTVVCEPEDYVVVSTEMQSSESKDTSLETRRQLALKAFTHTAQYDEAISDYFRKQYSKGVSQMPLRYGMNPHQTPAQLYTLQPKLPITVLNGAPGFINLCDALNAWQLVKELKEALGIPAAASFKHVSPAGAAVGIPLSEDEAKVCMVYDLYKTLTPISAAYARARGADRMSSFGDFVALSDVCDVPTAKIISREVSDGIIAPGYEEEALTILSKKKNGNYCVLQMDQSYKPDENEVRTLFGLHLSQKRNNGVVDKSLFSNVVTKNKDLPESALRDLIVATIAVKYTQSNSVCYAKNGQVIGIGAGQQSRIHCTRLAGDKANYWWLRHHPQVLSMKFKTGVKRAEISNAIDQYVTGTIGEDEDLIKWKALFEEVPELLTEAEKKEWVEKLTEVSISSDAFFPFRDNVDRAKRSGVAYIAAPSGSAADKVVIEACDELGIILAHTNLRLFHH

As to `Cc1cc(N=Nc2c(C)[nH]n(-c3ccc(S(=O)(=O)O)cc3)c2=O)ccc1S(=O)(=O)Nc1ccccc1`, the midpoint of inhibition, the IC50, lay at 11.6 µM. This lies in the double-digit micromolar range.
The result for `Cc1[nH]n(-c2ccc(S(=O)(=O)O)cc2)c(=O)c1N=Nc1cc(Cl)cc(S(=O)(=O)O)c1C(=O)O` [4-chloro-2-[(E)-2-[5-hydroxy-3-methyl-1-(4-sulfophenyl)-1H-pyrazol-4-yl]diazen-1-yl]-6-sulfobenzoic acid] reads 41.6 µM; that for `Cc1ccc(OS(=O)(=O)c2ccc(N=Nc3c(C)[nH]n(-c4ccc(Cl)cc4S(=O)(=O)O)c3=O)cc2)cc1` [5-chloro-2-{5-hydroxy-3-methyl-4-[(E)-2-[4-(4-methylphenoxysulfonyl)phenyl]diazen-1-yl]-1H-pyrazol-1-yl}benzene-1-sulfonic acid], 3.3 µM; that for `Cc1[nH]n(-c2cc(Cl)c(S(=O)(=O)O)cc2Cl)c(=O)c1N=Nc1ccc(S(=O)(=O)O)cc1` [yellow 2G], 20.1 µM.
The value for `O=S(=O)(O)Oc1c(-c2sc3c(ccc4cccc(Cl)c43)c2OS(=O)(=O)O)[nH]c2ccc(Br)cc12` [{4-[5-bromo-3-(sulfooxy)-1H-indol-2-yl]-13-chloro-3-thiatricyclo[7.4.0.0^{2,6}]trideca-1(9),2(6),4,7,10,12-hexaen-5-yl}oxidanesulfonic acid] was 1.4 µM.
